From patent US8754054B2, “Antibacterial compounds, methods of making them, and uses thereof” (Albany Molecular Research, Inc., priority 2010, dated 2014) come the findings set out here.

In brackets after ≈: the same amount, converted by molar mass. Counter-ions that a name gives are not always drawn.

The first test concerns MRSA 43300. Put plainly: Antibacterial activity, NCCLS dilution method (Table 9). The test is classed as cell-based, S. aureus. As to conditions: Staphylococcus aureus, MRSA, MRSA 43300; dilution method; labels marked a tested as a mixture of diastereomers; read-out: MRSA 43300 MIC. The source says:
NCCLS standards for antimicrobial susceptibility testing using the dilution method were followed. See: Performance Standards for Antimicrobial Susceptibility Testing; Fourteenth Informational Supplement. NCCLS Document M100-S14 (ISBN 1-56238-516-X), 2004. NCCLS, 940 West Valley Road, Suite 1400, Wayne, Pa. 19087-1898 USA, 2004; Methods for Dilution Antimicrobial Susceptibility Tests for Bacteria that Grow Aerobically; Approved Standard—Sixth Edition. NCCLS document M7-A6 (IBSBN 1-56238-486-4), NCCLS, 940 West Valley Road, Suite 1400, Wayne, Pa. 19087-1898 USA, 2003, which are hereby incorporated by reference in their entirety.
Broadly, the MIC is the least concentration at which growth counts as inhibited. Regarding `C/N=C1\C=C(N[C@H]2O[C@@H](C)[C@H](OC)[C@@H](O)[C@H]2OC)C(=O)c2cc3c(c(O)c21)C(=O)[C@]1(OC)[C@H](O)Cc2cc(C)c(C(=O)OC)c(O)c2[C@]1(O)C3=O` [Example 44, (6R,6aS,14aR,E)-Methyl 1,6,8,14a-tetrahydroxy-11-((2S,3R,4R,5R,6S)-4-hydroxy-3,5-dimethoxy-6-methyltetrahydro-2H-pyran-2-ylamino)-6a-methoxy-3-methyl-9-(methylimino)-7,12,14-trioxo-5,6,6a,7,9,12,14,14a-octahydrobenzo[a]tetracene-2-carboxylate], the MIC is 1 to 2 µg/mL (≈ 1.41 to 2.81 µM). On to `CO[C@@H]1[C@@H](O)[C@@H](OC)[C@@H](NC2=CC(=O)c3c(cc4c(c3O)C(=O)[C@]3(OC)[C@H](O)Cc5cc(C)c(C(=O)OCCCc6ccccc6)c(O)c5[C@]3(O)C4=O)C2=O)O[C@H]1C` [Example 33, (6R,6aS,14aR)-3-Phenylpropyl 1,6,8,14a-tetrahydroxy-11-((2S,3R,4R,5R,6S)-4-hydroxy-3,5-dimethoxy-6-methyltetrahydro-2H-pyran-2-ylamino)-6a-methoxy-3-methyl-7,9,12,14-tetraoxo-5,6,6a,7,9,12,14,14a-octahydrobenzo[a]tetracene-2-carboxylate], for which the MIC was 1 to 2 µg/mL (≈ 1.25 to 2.49 µM). Turning to `CCOC(=O)CCC1(O)C(N[C@H]2O[C@@H](C)[C@H](OC)[C@@H](O)[C@H]2OC)=CC(=N)c2c1cc1c(c2O)C(=O)[C@]2(OC)[C@H](O)Cc3cc(C)c(C(=O)OC)c(O)c3[C@]2(O)C1=O` (stereo partly drawn) [Example 59, (6R,6aS,14aR)-methyl 12-(3-ethoxy-3-oxopropyl)-1,6,8,12,14a-pentahydroxy-11-((2S,3R,4R,5R,6S)-4-hydroxy-3,5-dimethoxy-6-methyltetrahydro-2H-pyran-2-ylamino)-9-imino-6a-methoxy-3-methyl-7,14-dioxo-5,6,6a,7,9,12,14,14a-octahydrobenzo[a]tetracene-2-carboxylate], the MIC came out at 32 µg/mL (≈ 40.1 µM). As to `CCOC(=O)c1c(C)cc2c(c1O)[C@]1(O)C(=O)c3cc4c(c(O)c3C(=O)[C@]1(OC)[C@H](O)C2)C(=O)C=C(N[C@H]1O[C@@H](C)[C@H](OC)[C@@H](O)[C@H]1OC)C4=O` [Example 34, (6R,6aS,14aR)-Ethyl 1,6,8,14a-tetrahydroxy-11-((2S,3R,4R,5R,6S)-4-hydroxy-3,5-dimethoxy-6-methyltetrahydro-2H-pyran-2-ylamino)-6a-methoxy-3-methyl-7,9,12,14-tetraoxo-5,6,6a,7,9,12,14,14a-octahydrobenzo[a]tetracene-2-carboxylate], the MIC was 0.008 to 0.016 µg/mL (≈ 0.0112 to 0.0225 µM). Consider `CO[C@@H]1[C@@H](O)[C@@H](OC)C(NC2=CC(=O)c3c(cc4c(c3O)C(=O)[C@]3(OC)[C@H](O)Cc5cc(C)c(C(=O)N(C)C)c(O)c5[C@]3(O)C4=O)C2=O)O[C@H]1C` (mixture of isomers) [Example 16, (6R,6aS,14aR)-1,6,8,14a-Tetrahydroxy-11-((3R,4R,5R,6S)-4-hydroxy-3,5-dimethoxy-6-methyltetrahydro-2H-pyran-2-ylamino)-6a-methoxy-N,N,3-trimethyl-7,9,12,14-tetraoxo-5,6,6a,7,9,12,14,14a-octahydrobenzo[a]tetracene-2-carboxamide], for which the MIC was found to be 16 µg/mL (≈ 22.5 µM).

Take `COC(=O)c1c(C)cc2c(c1OCC(=O)N1CCCCC1)[C@]1(O)C(=O)c3cc4c(c(O)c3C(=O)[C@]1(OC)[C@H](O)C2)C(=O)C=C(N[C@H]1O[C@@H](C)[C@H](OC)[C@@H](O)[C@H]1OC)C4=O` [Example 12, (6R,6aS,14aR)-Methyl 6,8,14a-trihydroxy-11-((2S,3R,4R,5R,6S)-4-hydroxy-3,5-dimethoxy-6-methyltetrahydro-2H-pyran-2-ylamino)-6a-methoxy-3-methyl-7,9,12,14-tetraoxo-1-(2-oxo-2-(piperidin-1-yl)ethoxy)-5,6,6a,7,9,12,14,14a-octahydrobenzo[a]tetracene-2-carboxylate]: the MIC lay in the range of 0.25 to 1 µg/mL (≈ 0.304 to 1.22 µM). In the case of `CO[C@@H]1[C@@H](O)[C@@H](OC)C(NC2=CC(=O)c3c(cc4c(c3O)C(=O)[C@]3(OC)[C@H](O)Cc5cc(C)c(C(=O)N6CCCC6)c(O)c5[C@]3(O)C4=O)C2=O)O[C@H]1C` (mixture of isomers) [Example 22, (6R,6aS,14aR)-1,6,8,14a-Tetrahydroxy-11-((3R,4R,5R,6S)-4-hydroxy-3,5-dimethoxy-6-methyltetrahydro-2H-pyran-2-ylamino)-6a-methoxy-3-methyl-2-(pyrrolidine-1-carbonyl)-6,6a-dihydrobenzo[a]tetracene-7,9,12,14(5H,14aH)-tetraone], the MIC worked out at 1 µg/mL (≈ 1.36 µM). For the molecule `CO[C@@H]1[C@@H](O)[C@@H](OC)C(NC2=CC(=O)c3c(cc4c(c3O)C(=O)[C@]3(OC)[C@H](O)Cc5cc(C)c(C(=O)NCCO)c(O)c5[C@]3(O)C4=O)C2=O)O[C@H]1C` (mixture of isomers) [Example 24, (6R,6aS,14aR)-1,6,8,14a-Tetrahydroxy-11-((3R,4R,5R,6S)-4-hydroxy-3,5-dimethoxy-6-methyltetrahydro-2H-pyran-2-ylamino)-N-(2-hydroxyethyl)-6a-methoxy-3-methyl-7,9,12,14-tetraoxo-5,6,6a,7,9,12,14,14a-octahydrobenzo[a]tetracene-2-carboxamide], the MIC was found to be 32 µg/mL (≈ 44 µM). Still for that read-out and setting: next, `COC(=O)c1c(C)cc2c(c1O)[C@]1(O)C(=O)c3cc4c(c(O)c3C(=O)[C@]1(OC)/C(=N/O)C2)C(=O)C=C(N[C@H]1O[C@@H](C)[C@H](OC)/C(=N/O)[C@H]1OC)C4=O` [Example 53, (6aS,14aR,E)-Methyl 1,8,14a-trihydroxy-6-(hydroxyimino)-11-((2S,3R,5R,6S,Z)-4-(hydroxyimino)-3,5-dimethoxy-6-methyltetrahydro-2H-pyran-2-ylamino)-6a-methoxy-3-methyl-7,9,12,14-tetraoxo-5,6,6a,7,9,12,14,14a-octahydrobenzo[a]tetracene-2-carboxylate]: 0.12 µg/mL (≈ 0.166 µM). Same read-out and setting: as for `COc1ccc(CNC(=O)c2c(C)cc3c(c2O)[C@]2(O)C(=O)c4cc5c(c(O)c4C(=O)[C@]2(OC)[C@H](O)C3)C(=O)C=C(N[C@H]2O[C@@H](C)[C@H](OC)[C@@H](O)[C@H]2OC)C5=O)cc1` [Example 28, (6R,6aS,14aR)-1,6,8,14a-Tetrahydroxy-11-((3R,4R,5R,6S)-4-hydroxy-3,5-dimethoxy-6-methyltetrahydro-2H-pyran-2-ylamino)-6a-methoxy-N-(4-methoxybenzyl)-3-methyl-7,9-12-14-tetraoxo-5,6,6a,7,9,12,14,14a-octahydrobenzo[a]tetracene-2-carboxamide], the figure is 0.5 µg/mL (≈ 0.623 µM); as for `COC(=O)c1c(C)cc2c(c1O)[C@]1(O)C(=O)c3cc4c(c(O)c3C(=O)[C@]1(OC)[C@H](O)C2)C(=O)C=C(N[C@H]1O[C@@H](C)[C@H](OC)[C@@H](O)[C@H]1OC)C4(C)O` (single isomer, unassigned) [Example 55], 32 µg/mL (≈ 44.8 µM).

The same test, now with this note: Staphylococcus aureus, MRSA, read-out: MRSA 43300 MIC.
In the case of `CO[C@@H]1[C@@H](O)[C@@H](OC)C(NC2=CC(=O)c3c(cc4c(c3O)C(=O)[C@]3(OC)[C@H](O)Cc5cc(C)c(C(=O)NCc6cccnc6)c(O)c5[C@]3(O)C4=O)C2=O)O[C@H]1C` (mixture of isomers) [Example 17, (6R,6aS,14aR)-1,6,8,14a-Tetrahydroxy-11-((3R,4R,5R,6S)-4-hydroxy-3,5-dimethoxy-6-methyltetrahydro-2H-pyran-2-ylamino)-6a-methoxy-3-methyl-7,9,12,14-tetraoxo-N-(pyridin-3-ylmethyl)-5,6,6a,7,9,12,14,14a-octahydrobenzo[a]tetracene-2-carboxamide hydrochloride], the MIC was 32 µg/mL.
